Assay results from PubChem BioAssay AID248 (DTP/NCI, 2004).
Several values for one entry are separate records, joined by “and”; a condition that tells them apart may be missing. Identical values can stand only once. Toxic doses and inconclusive results are not listed. No stated cut-off is given here; in the data, active means T/C of 150% or more; inactive means T/C below 125%.

Tested on: L1210 leukemia ip in BDF1 mice, survival T/C
Assay: NCI In Vivo Anticancer Drug Screen. Data for tumor model L1210 Leukemia (intraperitoneal) in B6D2F1 (BDF1) mice
Settings: endpoint: mean survival time, higher = longer survival
Outline: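 In this screen, tumor-bearing mice given compound are compared to those given vehicle, and their survival values are reported as a treated-to-control quotient.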

[1] = dose: 50.0 mg/kg/injection, schedule: Q04DX003 (ip), vehicle: saline
[2] = dose: 25.0 mg/kg/injection, schedule: Q01DX009 (ip), vehicle: saline with Tween-80
[3] = dose: 50.0 mg/kg/injection, schedule: Q01DX009 (ip), vehicle: saline with Tween-80
[4] = dose: 100.0 mg/kg/injection, schedule: Q01DX009 (ip), vehicle: saline with Tween-80
[5] = dose: 100.0 mg/kg/injection, schedule: Q04DX003 (ip), vehicle: saline
[6] = dose: 200.0 mg/kg/injection, schedule: Q04DX003 (ip), vehicle: saline
[7] = dose: 100.0 mg/kg/injection, schedule: Q01DX001 (ip), vehicle: Klucel (hydroxypropylcellulose) (HPC)
[8] = dose: 100.0 mg/kg/injection, schedule: Q04DX003 (ip), vehicle: Klucel (hydroxypropylcellulose) (HPC)
[9] = dose: 200.0 mg/kg/injection, schedule: Q04DX003 (ip), vehicle: Klucel (hydroxypropylcellulose) (HPC)
[10] = dose: 400.0 mg/kg/injection, schedule: Q04DX003 (ip), vehicle: Klucel (hydroxypropylcellulose) (HPC)
[11] = dose: 100.0 mg/kg/injection, schedule: Q01DX009 (ip), vehicle: other
[12] = dose: 200.0 mg/kg/injection, schedule: Q01DX009 (ip), vehicle: other
[13] = dose: 400.0 mg/kg/injection, schedule: Q01DX009 (ip), vehicle: other
[14] = dose: 25.0 mg/kg/injection, schedule: Q01DX009 (ip), vehicle: saline
[15] = dose: 50.0 mg/kg/injection, schedule: Q01DX009 (ip), vehicle: saline
[16] = dose: 100.0 mg/kg/injection, schedule: Q01DX001 (ip), vehicle: saline
[17] = dose: 200.0 mg/kg/injection, schedule: Q01DX001 (ip), vehicle: saline
[18] = dose: 100.0 mg/kg/injection, schedule: Q01DX001 (ip), vehicle: carboxymethylcellulose (CMC)
[19] = dose: 200.0 mg/kg/injection, schedule: Q01DX001 (ip), vehicle: carboxymethylcellulose (CMC)
[20] = dose: 400.0 mg/kg/injection, schedule: Q01DX001 (ip), vehicle: carboxymethylcellulose (CMC)
[21] = dose: 400.0 mg/kg/injection, schedule: Q01DX001 (ip), vehicle: saline
[22] = dose: 50.0 mg/kg/injection, schedule: Q01DX001 (ip), vehicle: saline
[23] = dose: 100.0 mg/kg/injection, schedule: Q04DX003 (ip), vehicle: saline with Tween-80
[24] = dose: 12.5 mg/kg/injection, schedule: Q01DX009 (ip), vehicle: Klucel (hydroxypropylcellulose) (HPC)
[25] = dose: 25.0 mg/kg/injection, schedule: Q01DX009 (ip), vehicle: Klucel (hydroxypropylcellulose) (HPC)
[26] = dose: 25.0 mg/kg/injection, schedule: Q04DX003 (ip), vehicle: Klucel (hydroxypropylcellulose) (HPC)
[27] = dose: 50.0 mg/kg/injection, schedule: Q04DX003 (ip), vehicle: Klucel (hydroxypropylcellulose) (HPC)
[28] = dose: 12.5 mg/kg/injection, schedule: Q04DX003 (ip), vehicle: Klucel (hydroxypropylcellulose) (HPC)

Measured: T/C

CCN(CC)CC(=O)NCC(CCCCN1CCCCC1)(c1cccc2ccccc12)C(C)C (configuration not stated)
inactive: dose: 12.5 mg/kg/injection, schedule: Q04DX003 (ip), vehicle: saline 104 % of control | dose: 25.0 mg/kg/injection, schedule: Q04DX003 (ip), vehicle: saline 102 % of control | [1] 102 % of control

ClCc1ccc(CCl)c(Cl)c1Cl
inactive: [2] 105 % of control | [3] 97 % of control | [4] 93 % of control

CN1CCCC2C3=CC=C4CC(O)CCC4(C)C3CCC21C (configuration not stated)
inactive: dose: 75.0 mg/kg/injection, schedule: Q01DX001 (ip), vehicle: carboxymethylcellulose (CMC) 98 % of control | dose: 150.0 mg/kg/injection, schedule: Q01DX001 (ip), vehicle: carboxymethylcellulose (CMC) 101 % of control

CN1CCN(Cc2cc(C(C)(C)C)cc(-c3ccccc3)c2O)CC1
inactive: [5] 92 % of control | [6] 102 % of control | dose: 400.0 mg/kg/injection, schedule: Q04DX003 (ip), vehicle: saline 110 % of control

O=C1C=CC(=NCC(=O)OCc2ccccc2)O1
inactive: dose: 200.0 mg/kg/injection, schedule: Q04DX003 (ip), vehicle: acetone 91 % of control | dose: 400.0 mg/kg/injection, schedule: Q04DX003 (ip), vehicle: acetone 90 % of control

COc1ccc2c(ccc3ccc4ccccc4c32)c1
inactive: [7] 105 % of control | dose: 200.0 mg/kg/injection, schedule: Q01DX001 (ip), vehicle: Klucel (hydroxypropylcellulose) (HPC) 102 % of control | dose: 400.0 mg/kg/injection, schedule: Q01DX001 (ip), vehicle: Klucel (hydroxypropylcellulose) (HPC) 100 % of control

Oc1ccccc1CNc1ccccc1
inactive: [8] 96 % of control | [9] 94 % of control | [10] 96 % of control

CS(=O)(=O)N(CC(=O)O)Cc1cccc(Cl)c1
inactive: [11] 100 % of control | dose: 100.0 mg/kg/injection, schedule: Q04DX003 (ip), vehicle: other 100 % of control | [12] 101 % of control | dose: 200.0 mg/kg/injection, schedule: Q04DX003 (ip), vehicle: other 102 % of control | [13] 97 % of control | dose: 400.0 mg/kg/injection, schedule: Q04DX003 (ip), vehicle: other 103 % of control

CC(C)(C)c1cc(C(C)(C)[N+](C)(C)C)cc(C(C)(C)C)n1
inactive: dose: 50.0 mg/kg/injection, schedule: Q01DX001 (ip), vehicle: Klucel (hydroxypropylcellulose) (HPC) 102 % of control | [7] 90 % of control

N#Cc1cccc(OCCOc2cccc3ccccc23)c1
inactive: dose: 100.0 mg/kg/injection, schedule: Q01DX001 (ip), vehicle: saline with Tween-80 96 % of control | dose: 200.0 mg/kg/injection, schedule: Q01DX001 (ip), vehicle: saline with Tween-80 94 % of control | dose: 400.0 mg/kg/injection, schedule: Q01DX001 (ip), vehicle: saline with Tween-80 87 % of control

O=S1(=O)C(Cl)(Cl)SC(Cl)(Cl)S(=O)(=O)C1(Cl)Cl
inactive: dose: 12.5 mg/kg/injection, schedule: Q01DX009 (ip), vehicle: saline 101 % of control | [14] 93 % of control | [15] 101 % of control | [1] 93 % of control | [16] 96 % of control | [17] 98 % of control

CC(=O)N1Cc2nc(N)nc(N)c2C1
inactive: [18] 95 % of control | [19] 104 % of control | [20] 104 % of control

O=[N+]([O-])c1cc(/C=N/N2CCN(/N=C/c3ccc(Cl)c([N+](=O)[O-])c3)CC2)ccc1Cl
inactive: [16] 96 % of control | [17] 93 % of control | [21] 90 % of control

Cc1ncc(CCl)n1Cc1ccccc1
inactive: dose: 6.25 mg/kg/injection, schedule: Q04DX002 (ip), vehicle: saline 95 % of control and 87 % of control | dose: 12.5 mg/kg/injection, schedule: Q04DX002 (ip), vehicle: Klucel (hydroxypropylcellulose) (HPC) 110 % of control | dose: 12.5 mg/kg/injection, schedule: Q04DX002 (ip), vehicle: saline 114 % of control and 90 % of control | [14] 94 % of control and 104 % of control | dose: 25.0 mg/kg/injection, schedule: Q04DX002 (ip), vehicle: Klucel (hydroxypropylcellulose) (HPC) 95 % of control | [22] 96 % of control | [15] 93 % of control and 119 % of control | dose: 50.0 mg/kg/injection, schedule: Q04DX002 (ip), vehicle: Klucel (hydroxypropylcellulose) (HPC) 100 % of control | [16] 97 % of control | dose: 100.0 mg/kg/injection, schedule: Q01DX009 (ip), vehicle: saline 89 % of control and 90 % of control | [5] 90 % of control | [6] 93 % of control

CC(C)=CC(=O)OC(=O)C=C(C)C
inactive: [11] 105 % of control | [23] 98 % of control | [12] 88 % of control | dose: 200.0 mg/kg/injection, schedule: Q04DX003 (ip), vehicle: saline with Tween-80 96 % of control | [13] 91 % of control | dose: 400.0 mg/kg/injection, schedule: Q04DX003 (ip), vehicle: saline with Tween-80 89 % of control

CC1([N+](=O)[O-])COP(=O)(NC2CC2)OC1 (configuration not stated)
inactive: dose: 50.0 mg/kg/injection, schedule: Q01DX001 (ip), vehicle: carboxymethylcellulose (CMC) 97 % of control | [18] 97 % of control | [19] 103 % of control | [20] 97 % of control

Cc1cc(=O)[nH]c2nc(N)ccc12
inactive: [22] 101 % of control | [16] 93 % of control | [17] 93 % of control | [21] 101 % of control

Nc1c(Cl)cc(C(=O)NC2CC2)cc1Cl
inactive: dose: 6.25 mg/kg/injection, schedule: Q01DX009 (ip), vehicle: Klucel (hydroxypropylcellulose) (HPC) 103 % of control | [24] 94 % of control | [25] 92 % of control | [26] 104 % of control | dose: 50.0 mg/kg/injection, schedule: Q01DX009 (ip), vehicle: Klucel (hydroxypropylcellulose) (HPC) 97 % of control | [27] 98 % of control | dose: 100.0 mg/kg/injection, schedule: Q01DX009 (ip), vehicle: Klucel (hydroxypropylcellulose) (HPC) 100 % of control | [8] 104 % of control

CCN1CCN(Cc2ccccc2)C(CCl)C1 (configuration not stated)
inactive: [24] 96 % of control | [28] 100 % of control | [25] 102 % of control | [26] 96 % of control | [27] 93 % of control

O=C(O)C(Br)C(Br)c1ccc([N+](=O)[O-])cc1 (configuration not stated)
inactive: dose: 100.0 mg/kg/injection, schedule: Q04DX002 (ip), vehicle: gum acacia 103 % of control | dose: 200.0 mg/kg/injection, schedule: Q04DX002 (ip), vehicle: gum acacia 107 % of control | dose: 400.0 mg/kg/injection, schedule: Q04DX002 (ip), vehicle: gum acacia 90 % of control

CSc1ncc(C(N)=O)c(N=C(C)C)n1
inactive: [28] 96 % of control | [26] 96 % of control | [27] 94 % of control | [8] 97 % of control

O=C(O)COc1cc(OCC(=O)O)c([N+](=O)[O-])cc1[N+](=O)[O-]
inactive: [8] 102 % of control | [9] 102 % of control | [10] 91 % of control

N=c1c2cnn(C3OC(CO)C(O)C3O)c2ncn1N (configuration not stated)
inactive: dose: 6.25 mg/kg/injection, schedule: Q01DX009 (ip), vehicle: water 112 % of control | dose: 12.5 mg/kg/injection, schedule: Q01DX009 (ip), vehicle: water 121 % of control

N#CCn1c(C(F)(F)F)nc2nc(Cl)c(Cl)nc21
inactive: [2] 98 % of control | [3] 98 % of control | [4] 96 % of control | [23] 98 % of control
